The compounds below were run against T1, human apelin receptor (APJ, APLNR) (Homo sapiens, UniProt P35414) (assay: cell-based cAMP assay (TR-FRET) in Chinese hamster ovary cells expressing the apelin receptor). Settings: EC50 = 50% of control (apelin-13, 1 nM) response; cAMP in CHO cells, 0.5 h incubation; read-out: Potency Category.
T1 construct: host or cells: Chinese hamster ovary (CHO) cells, stably integrated receptor
T1 sequence (P35414 1-380): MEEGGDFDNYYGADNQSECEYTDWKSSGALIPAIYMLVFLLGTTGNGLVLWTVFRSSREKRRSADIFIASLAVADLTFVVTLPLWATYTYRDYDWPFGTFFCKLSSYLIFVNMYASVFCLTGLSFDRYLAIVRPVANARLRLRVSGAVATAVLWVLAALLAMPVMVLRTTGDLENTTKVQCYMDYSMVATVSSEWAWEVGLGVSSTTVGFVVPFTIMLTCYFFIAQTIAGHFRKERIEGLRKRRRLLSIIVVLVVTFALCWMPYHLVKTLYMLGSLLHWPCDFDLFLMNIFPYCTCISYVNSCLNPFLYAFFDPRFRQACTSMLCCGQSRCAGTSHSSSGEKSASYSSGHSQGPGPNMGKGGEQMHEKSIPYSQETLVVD
Description: This example illustrates the biological activity of various compounds tested against the APJ receptor.
Commercially available cell lines were used to screen chemical libraries to identify compounds that potently and selectively activated the human apelin receptor. The assays disclosed herein were performed using cell lines from DiscoveX, Inc.
Biological activity was determined to the cell-based assay. This assay detects activation of the receptor by reporting on intracellular cyclic adenosine monophosphate (cAMP) level. Chinese hamster ovary cells engineered to express the stably integrated human appellant receptor (APJ, AGTRL-one, APLNR), pleaded into the wells of the microtiter plate. Cells were stimulated with […] to increase intracellular cyclic AMP. Immediately following, compounds were added to the range of final concentrations 0.0-100 μM, in DMSO (not to exceed a final DMSO concentration greater than 1% v/v), and allowed to incubate with the cells for 0.5 h. At the end of the incubation, cells were lysed to stop APJ signaling and cAMP was quantified using a commercially available competitive immunoassay kit that applies homogenous time-resolved florescence energy transfer (TR-FRET). The assay is based on the competition between a europium (Eu) chelate-labeled cAMP donor tracer and cellular cAMP for binding sites on a cAMP-specific monoclonal antibody labeled with an acceptor fluorophore. When antibodies are bound to the cAMP tracer light emissions at 320 nm stimulate the energy transfer from the donor to the acceptor, which in turn emits light at 665 nm. In the presence of competitive unlabeled cAMP (derived from the activity of the receptor or forskolin-stimulated production of cAMP), the labelled cAMP tracer is dissociated from the cAMP antibody, resulting in a loss of FRET signal. The amount of light emitted by the FRET is inversely proportional to the cAMP generated by the cell/receptor system. Potency and efficacy at APJ are reported in reference to the canonical APJ receptor agonist apelin-13 when tested at 1 nM.
Compound competency is reported as the effective concentration required to effect 50% (EC 50) of the control (apelin—13, 1 nM) response in micromole are (μM) units. Compound efficacy (% response) is reported as a percentage of the maximal apein-13 response at 1 nM (control). Potencies were calculated by fitting a four-point logistic curve to concentration response consisting of at least 10 discrete data points spanning effective range of the compounds in the cell-based assay that measures cAMP. In Table 1, the Potency Categories are A, B, C and D. Category A EC50>500 nM; Category B 200<EC50<500 nM; Category C 100<EC50<200 nM; Category D<100 nM.

Row | Compound | EC50 [µM]
1 | COC(=O)c1cc(C(C)(C)C)n2nc(C)c(-c3ccccc3)c2n1 [Compound 1, methyl 7-(tert-butyl)-2-methyl-3-phenyl-8-hydropyrazolo[1,5-a]pyrimidine-5-carboxylate] | > 0.5
2 | Cc1nn2c(C(C)(C)C)cc(C(=O)O)nc2c1-c1ccccc1 [Compound 2, 7-(tert-butyl)-2-methyl-3-phenyl-8-hydropyrazolo[1,5-a]pyrimidine-5-carboxylic acid] | > 0.5
3 | Cc1nn2c(C(C)C)cc(C(=O)O)nc2c1-c1ccccc1 [Compound 3, 2-methyl-7-(methylethyl)-3-phenyl-8-hydropyrazolo[1,5-a]pyrimidine-5-carboxylic acid] | > 0.5
4 | Cc1nn2c(C)cc(C(=O)O)nc2c1-c1ccccc1 [Compound 4, 2,7-dimethyl-3-phenyl-8-hydropyrazolo[1,5-a]pyrimidine-5-carboxylic acid] | > 0.5
5 | Cc1ccc(-c2c(C)nn3c(C(C)C)cc(C(=O)O)nc23)cc1 [Compound 5, 2-methyl-7-(methylethyl)-3-(4-methylphenyl)-8-hydropyrazolo[1,5-a]pyrimidine-5-carboxylic acid] | > 0.5
6 | Cc1nn2c(C3CC3)cc(C(=O)O)nc2c1-c1ccccc1 [Compound 6, 7-cyclopropyl-2-methyl-3-phenyl-8-hydropyrazolo[1,5-a]pyrimidine-5-carboxylic acid] | > 0.5
7 | CC(C)c1cc(C(=O)O)nc2c(-c3ccccc3)cnn12 [Compound 7, 7-(methylethyl)-3-phenyl-8-hydropyrazolo[1,5-a]pyrimidine-5-carboxylic acid] | > 0.5
8 | Cc1nn2c(C(C)C)cc(C(=O)O)nc2c1-c1ccc(F)cc1 [Compound 8, 3-(4-fluorophenyl)-2-methyl-7-(methylethyl)-8-hydropyrazolo[1,5-a]pyrimidine-5-carboxylic acid] | > 0.5
9 | COc1ccc(-c2c(C)nn3c(C(C)C)cc(C(=O)O)nc23)cc1 [Compound 9, 3-(4-methoxyphenyl)-2-methyl-7-(methylethyl)-8-hydropyrazolo[1,5-a]pyrimidine-5-carboxylic acid] | > 0.5
10 | COc1ccc(-c2c(C)nn3c(C(=O)O)cc(C(C)C)nc23)cc1 [Compound 10, 3-(4-methoxyphenyl)-2-methyl-5-(methylethyl)-8-hydropyrazolo[1,5-a]pyrimidine-7-carboxylic acid] | > 0.5
11 | CCOC(=O)c1cc(C(C)C)n2nc(C3CC3)c(-c3ccccc3)c2n1 [Compound 11, ethyl 2-cyclopropyl-7-(methylethyl)-3-phenyl-8-hydropyrazolo[1,5-a]pyrimidine-5-carboxylate] | > 0.5
12 | CC(C)c1cc(C(=O)O)nc2c(-c3ccccc3)c(C3CC3)nn12 [Compound 12, 2-cyclopropyl-7-(methylethyl)-3-phenyl-8-hydropyrazolo[1,5-a]pyrimidine-5-carboxylic acid] | > 0.5
13 | CCc1nn2c(C(C)C)cc(C(=O)O)nc2c1-c1ccccc1 [Compound 13, 2-ethyl-7-(methylethyl)-3-phenyl-8-hydropyrazolo[1,5-a]pyrimidine-5-carboxylic acid] | > 0.5
14 | Cc1nn2c(C(C)C)cc(C(N)=O)nc2c1-c1ccccc1 [Compound 14, 2-methyl-7-(methylethyl)-3-phenyl-8-hydropyrazolo[1,5-a]pyrimidine-5-carboxamide] | > 0.5

Other lines, results leading:

Row | EC50 [µM] | Compound
15 | > 0.5 | CNC(=O)c1cc(C(C)C)n2nc(C)c(-c3ccccc3)c2n1 [Compound 15, N-methyl[2-methyl-7-(methylethyl)-3-phenyl(8-hydropyrazolo[1,5-a]pyrimidin-5-yl)]carboxamide]
16 | > 0.5 | Cc1nn2c(C(C)C)cc(C(=O)N(C)C)nc2c1-c1ccccc1 [Compound 16, N,N-dimethyl[2-methyl-7-(methylethyl)-3-phenyl(8-hydropyrazolo[1,5-a]pyrimidin-5-yl)]carboxamide]
17 | > 0.5 | CCOC(=O)c1cc(C(C)C)n2nc(C)c(-c3cccc(OC)c3)c2n1 [Compound 18, ethyl 3-(3-methoxyphenyl)-2-methyl-7-(methylethyl)-8-hydropyrazolo[1,5-a]pyrimidine-5-carboxylate]
18 | > 0.5 | CCOC(=O)c1cc(C(C)C)n2nc(C)c(-c3ccccc3Cl)c2n1 [Compound 19, ethyl 3-(2-chlorophenyl)-2-methyl-7-(methylethyl)-8-hydropyrazolo[1,5-a]pyrimidine-5-carboxylate]
19 | 0.1 to 0.2 | Cc1ccccc1-c1c(C)nn2c(C(C)C)cc(C(=O)O)nc12 [Compound 20, 2-methyl-7-(methylethyl)-3-(2-methylphenyl)-8-hydropyrazolo[1,5-a]pyrimidine-5-carboxylic acid]
20 | > 0.5 | Cc1nn2c(C(C)C)cc(C(=O)O)nc2c1-c1ccccc1Cl [Compound 21, 3-(2-chlorophenyl)-2-methyl-7-(methylethyl)-8-hydropyrazolo[1,5-a]pyrimidine-5-carboxylic acid]
21 | > 0.5 | COc1cccc(-c2c(C)nn3c(C(C)C)cc(C(=O)O)nc23)c1 [Compound 22, 3-(3-methoxyphenyl)-2-methyl-7-(methylethyl)-8-hydropyrazolo[1,5-a]pyrimidine-5-carboxylic acid]
22 | > 0.5 | CCOC(=O)c1cc(C(C)C)n2nc(C)c(-c3ccccc3F)c2n1 [Compound 23, ethyl 3-(2-fluorophenyl)-2-methyl-7-(methylethyl)-8-hydropyrazolo[1,5-a]pyrimidine-5-carboxylate]
23 | > 0.5 | CC1=NC2C(C(C)C)=CC(C(=O)O)=NC2=C1c1ccccc1F (centres unmarked) [Compound 24, 3-(2-fluorophenyl)-2-methyl-7-(methylethyl)-8-hydropyrazolo[1,5-a]pyrimidine-5-carboxylic acid]
24 | > 0.5 | CCOC(=O)c1cc(C(C)C)n2nc(C)c(-c3cccc(F)c3)c2n1 [Compound 25, ethyl 3-(3-fluorophenyl)-2-methyl-7-(methylethyl)-8-hydropyrazolo[1,5-a]pyrimidine-5-carboxylate]
25 | > 0.5 | Cc1nn2c(C(C)C)cc(C(=O)O)nc2c1-c1cccc(F)c1 [Compound 26, 3-(3-fluorophenyl)-2-methyl-7-(methylethyl)-8-hydropyrazolo[1,5-a]pyrimidine-5-carboxylic acid]
26 | > 0.5 | CCOC(=O)c1cc(C(C)C)n2nc(C)c(-c3cccc(C)c3)c2n1 [Compound 27, ethyl 2-methyl-7-(methylethyl)-3-(3-methylphenyl)-8-hydropyrazolo[1,5-a]pyrimidine-5-carboxylate]
27 | > 0.5 | Cc1cccc(-c2c(C)nn3c(C(C)C)cc(C(=O)O)nc23)c1 [Compound 28, 2-methyl-7-(methylethyl)-3-(3-methylphenyl)-8-hydropyrazolo[1,5-a]pyrimidine-5-carboxylic acid]
28 | > 0.5 | CCOC(=O)c1cc(C(C)C)n2nc(C)c(-c3ccccc3OC)c2n1 [Compound 29, ethyl 3-(2-methoxyphenyl)-2-methyl-7-(methylethyl)-8-hydropyrazolo[1,5-a]pyrimidine-5-carboxylate]
29 | > 0.5 | CCOC(=O)c1cc(C(C)C)n2nc(C)c(-c3cccc(Cl)c3)c2n1 [Compound 30, ethyl 3-(3-chlorophenyl)-2-methyl-7-(methylethyl)-8-hydropyrazolo[1,5-a]pyrimidine-5-carboxylate]
30 | > 0.5 | COc1ccccc1-c1c(C)nn2c(C(C)C)cc(C(=O)O)nc12 [Compound 31, 3-(2-methoxyphenyl)-2-methyl-7-(methylethyl)-8-hydropyrazolo[1,5-a]pyrimidine-5-carboxylic acid]
31 | > 0.5 | Cc1nn2c(C(C)C)cc(C(=O)O)nc2c1-c1cccc(Cl)c1 [Compound 32, 3-(3-chlorophenyl)-2-methyl-7-(methylethyl)-8-hydropyrazolo[1,5-a]pyrimidine-5-carboxylic acid]
32 | > 0.5 | CCOC(=O)c1cc(CC)n2nc(C)c(-c3ccccc3)c2n1 [Compound 33, ethyl 7-ethyl-2-methyl-3-phenyl-8-hydropyrazolo[1,5-a]pyrimidine-5-carboxylate]

From patent publication US12006321B2, “Substituted pyrazolo[1,5-a]pyrimidines as apelin receptor agonists” (Sanford Burnham Prebys Medical Discovery Institute, priority 2017, dated 2024)
